In paper PMC9729826, “Hypoaminoacidemia underpins glucagon-mediated energy expenditure and weight loss” (Cell Reports Medicine, 2022):
Starred links: 1 amine or outer side, 2 acyl side, 3 side chain; linkers in the order of their positions; H or OH if unused. Non-standard residues stand in square brackets, D forms with d. Residues, ends and D or L forms follow the SMILES beside them. Groups on a side chain read outwards from the residue. *: point of attachment. C18 diacid = O=C(O)CCCCCCCCCCCCCCCCC(=O)*; γGlu = O=C(O)[C@H](CCC(=O)[*:2])N[*:1]; Aib = CC(C)(N)C(=O)O

Key:
[1] = Pharmacokinetic profile of G108 in rats (plasma radioimmunoassay); settings: rat, in vivo, sc, male Wistar rats, single 0.5 mg subcutaneous dose, sampled 1.5-72 h, n = 4, read-out: time at which peak plasma concentrations were achieved
Protocol: 10-week-old male Wistar rats (N = 4) were administered with 0.5 mg G108 via 100 μL subcutaneous injection. Tail venesection was performed to collect 100 μL blood samples prior to injection and at 1.5, 3, 6, 24, 48 and 72 h after injection. Blood samples were immediately frozen on ice, centrifuged at 8000 × g for 10 min at 4°C, and the plasma supernatant collected. Samples were stored at −20°C.
An in-house radioimmunoassay was used to determine peptide concentrations in the rat plasma. Antiserum (RA553/3) was produced in rabbits against the purified glucagon (1–16) fragment which specifically cross-reacted with the N-terminal glucagon-like sequence of G108. Direct iodination was used to produce Iodine-125 glucagon which was purified by reverse phase high pressure liquid chromatography. The assay was performed in a total volume of 700 μL of 0.06 M phosphate EDTA buffer containing 0.3% BSA. All samples were assayed in duplicate and the standard curve was set using 5 pmol/mL G108 in assay buffer. The assay was incubated for 3 nights at 4°C prior to separation via charcoal into free and antibody-bound label. A γ-counter was used to count the pellet and supernatant and the ratio of free to bound label was calculated. The plasma peptide concentration was calculated using two phase exponential decay with respect to the relevant standard curve.

[2] = test system: diet-induced obese (DIO) C57BL/6 mice; experiment: Chronic low-dose (7.5 nmol/kg) G108 study in DIO mice on SP or HP diet; format: in vivo, mouse; settings: 7.5 nmol/kg s.c. daily
From the text: Lean 10-week-old C57BL/6 mice (N = 27) were provided ad libitum a 60 kcal% high fat diet (diet D12492, Table S2) for 12 weeks prior to the start of the study. The cohort of mice were individually housed and divided into three treatment groups, based on treatment and diet allocation: Vehicle/High fat, Standard protein diet (SP) (N = 9), 7.5 nmol/kg G108/SP diet (N = 9) and 7.5 nmol/kg G108/High fat, High protein diet (HP) (N = 9). The high fat, standard protein diet (SP diet) (D08091803) and high fat, high protein diet (HP diet) (D08091801) are detailed in Table S2. All mice had ad libitum access to water and their allocated diets. Mice were subcutaneously administered with their respective treatments at 9 am each day for 27 days. Food intake, water intake and body weight were measured using the same weighing scale each morning prior to vehicle or G108 administration. EchoMRI was carried out at baseline, day 14 and day 25. Tail venesection was carried out on day 13 of the study immediately pre-treatment. 40–50 μL of blood was collected and immediately transferred on ice, centrifuged at 2800 × g for 10 min prior to analysis for total and individual plasma amino acids. A glucose tolerance test was carried out on day 15 of the study following a 5 h fast as described below. Forelimb grip strength testing was performed at baseline and day 25 of the study. After 20 days, all groups were placed into metabolic cages, single housed for 72 h, as described below. After 72 h, all groups were removed from the metabolic cages and returned to their home cages. Following a 4 h fast on day 27 all mice were culled, with the following tissues dissected and snap frozen in liquid nitrogen prior to storage at −80°C: gastrocnemius, quadriceps, brown adipose tissue (BAT) and liver. Terminal blood was also collected and transferred on ice immediately for centrifugation as previously described and storage at −80°C.
Food intake was measured daily using a dedicated weighing scale and topped up accordingly. Body weight was recorded at 9 am daily or every 48 h using the same weighing scale. Body composition was measured using an EchoMRI analyser at various timepoints during chronic studies. Body composition measurements were taken on the same time of day to reduce intra-animal variability. Animals were placed in a transparent cylindrical Perspex tube and both ends secured with Perspex clips. The tubes containing the animal was then carefully placed into the MRI machine (EchoMRI −100H analyser, EchoMRI). Each scan lasted approximately 90 s where lean mass and fat mass were recorded in grams. Following the scan, the mice were removed from the Perspex tube and returned to their respective cages.
For glucose tolerance tests, following a 5 h fast and administration of peptide or vehicle treatment, mice were administered with glucose by intraperitoneal injection at a dose of 2 g/kg body weight. Tail vein blood samples were taken at baseline, 20, 40, 60 and 90 min and glucose measured (mmol/L) using a handheld GlucoRx monitor (GlucoRx, UK).
To measure energy expenditure, DIO mice were placed into a Comprehensive Laboratory Animal Monitoring System (CLAMS, Columbus instruments, Columbus, US). Measurement of oxygen consumption and carbon dioxide production was taken at 20 min intervals. Food intake was also measured electronically without the need to remove food. Each cohort of mice were placed into the CLAMS system with daily weighing of body weight prior to administration of the allocated treatment at 9 am. Following administration of treatment, mice were placed back into the metabolic cages with ad libitum access to their allocated diet. For studies with the low amino acid (LAA) diet in metabolic cages, animals were not removed from the metabolic cages until the end of the experiment and had ad libitum access to either standard protein or low amino acid diets. Feed efficiency was calculated as mg body weight change per kJ consumed. […]

- Tmax [1]: 24 h
Compound: CC[C@H](C)[C@H](NC(=O)[C@H](Cc1ccccc1)NC(=O)[C@H](CCC(=O)O)NC(=O)[C@H](CCC(N)=O)NC(=O)[C@H](C)NC(=O)[C@H](CCCNC(=N)N)NC(=O)[C@H](CCCCN)NC(=O)[C@H](C)NC(=O)[C@H](CC(=O)O)NC(=O)[C@H](CC(C)C)NC(=O)[C@H](Cc1ccc(O)cc1)NC(=O)[C@H](CCCNC(=N)N)NC(=O)[C@H](CO)NC(=O)[C@H](Cc1ccc(O)cc1)NC(=O)[C@H](CC(=O)O)NC(=O)[C@H](CO)NC(=O)[C@@H](NC(=O)[C@H](Cc1ccccc1)NC(=O)[C@@H](NC(=O)CNC(=O)[C@H](Cc1c[nH]cn1)NC(=O)C(C)(C)NC(=O)[C@@H](N)Cc1c[nH]cn1)[C@@H](C)O)[C@@H](C)O)C(=O)N[C@@H](CCC(=O)O)C(=O)N[C@@H](Cc1c[nH]c2ccccc12)C(=O)N[C@@H](CC(C)C)C(=O)N[C@@H](CC(C)C)C(=O)N[C@@H](CCC(N)=O)C(=O)N[C@@H](CO)C(=O)N[C@@H](Cc1c[nH]cn1)C(=O)N[C@@H](Cc1c[nH]cn1)C(=O)N[C@@H](CCC(N)=O)C(=O)N[C@@H](Cc1c[nH]cn1)C(=O)N[C@@H](Cc1c[nH]cn1)C(=O)N1CCC[C@H]1C(=O)N[C@@H](CO)C(=O)N1CCC[C@H]1C(=O)N1CCC[C@H]1C(=O)N1CCC[C@H]1C(=O)N[C@@H](CCCCNC(=O)[C@H](CC(N)=O)NC(=O)CC[C@H](NC(=O)CCCCCCCCCCCCCCCCC(=O)O)C(=O)O)C(N)=O [Peptide G108] (H-H[Aib]HGTFTSDYSRYLDAKRAQEFIEWLLQSHHQHHPSPPPK([Asn-γGlu-C18 diacid])-NH2; N-terminus and C-terminus assumed)
- food intake ([2]; 27 days): did not affect food intake
- body weight on high protein (HP) diet ([2]; 27 days, HP diet (40 kcal% protein) versus SP diet, n = 9/group): sufficient to prevent chronic G108-mediated weight loss
- lean mass and grip strength on HP diet ([2]; HP diet, less pronounced over the course of the study): blunted the reduction in lean mass and grip strength
- energy expenditure (EE) in metabolic cages ([2]; after 20 days, CLAMS, SP and HP diets, n = 7-8/group): increased EE on a standard protein (SP), but not HP, diet
- individual plasma amino acids ([2]; day 13, SP diet, GC/MS, n = 5/group): reduced the plasma abundance of most amino acids
- plasma total cholesterol ([2]; day 14, both SP and HP diets, n = 9/group): improvement in plasma cholesterol
- plasma total triglyceride ([2]; day 14, n = 9/group): no change in plasma triglycerides
- glucose tolerance (intraperitoneal glucose tolerance test, 2 g/kg) ([2]; day 15, SP and HP diets, n = 9/group): remarkably efficient at improving glucose tolerance
- fat mass on standard protein (SP) diet ([2]; days 14 and 25, SP diet, prevented by HP diet): marked reduction in fat mass
- induction of hepatic amino acid catabolic pathways on HP diet ([2]; liver qPCR, n = 5-6/group): not prevented by the HP diet
- hepatic lipid content (oil red O staining) ([2]; terminal (day 27), both SP and HP diets): highly effective at clearing liver fat
